Measurements as given in patent US20060045883A1, “Anti-cancer vaccines” (priority 2004, published 2006).
“And” between values parts separate entries of the source, which are not always exact repeats. Equal values may be shown once.

Experiments:
HLA-A2.1 = HLA-A2.1 (Homo sapiens, UniProt P04439, D140Y/D185E/D98H/E176V/E277Q/G131W/G231S/I119V/I121R/I166T/I218V/L300P/L318F/N151K/N90K/P208A/P217A/Q86G/Q94H/R138H/R169H/T345S); assay: HLA-A2.1 surface expression on peptide-coated T2 cells by indirect flow cytometry (BB7.2); format: binding; details: for surface HLA-A2.1 expression on peptide-pulsed T2 cells: compared with T2 cells with no added peptide / positive control influenza peptide; for Median Channel of Fluorescence of HLA-A2 Expression on T2: peptide-coated T2 cells, background HLA-A2 22
T2 cells = assay: Peptide-specific cytotoxicity of peptide-elicited CTL lines against peptide-loaded T2 cells; details: T2 cells loaded with the same peptide; 4-hr assay, varying E:T
Method: CTL cytotoxicity assay. A semiautomated minicytotoxicity assay was used to determine specific lysis as described previously (Molldrem, 2000; Molldrem et al., 1996). Briefly, effector cells were prepared in doubling dilutions from 6×10^3 to 25×10^3 cells/well and were plated in 40 μl, 60-well Terasaki trays (Robbins Scientific, Sunnyvale, Calif., USA) with six replicates per dilution. Target cells (T2 cells, marrow-derived leukemic cells, or BM from a healthy donor) at a concentration of 2×10^6 cells/ml were stained with 10 μg/ml of Calcein-AM (Molecular Probes Inc.) for 60 min at 37° C. After washing three times in CM plus 10% AB, target cells were resuspended at 10^5 cells/ml, and 10^3 target cells in 10 μl medium were added to each well containing effector cells. Wells with target cells alone and medium alone were used for maximum (max) and minimum (min.) fluorescence emission, respectively. After 4 hr incubation at 37° C. in 5% CO2, 5 μl FluoroQuench (One Lambda Inc., Canoga Park, Calif., USA) was added to each well, and the trays were centrifuged for 1 min at 60 g before measurement of fluorescence using an automated CytoFluor II plate reader (PerSeptive Biosystems, Framingham, Mass., USA). The percentage of lysis was calculated as follows: % lysis={1−[(mean experimental mission−mean min.)/(mean max−mean min.)]}×100%.
Induction of Primary CTL responses to peptides. These peptides were next used to stimulate T cells specific for peptide-coated targets. PBMC from a normal healthy donor heterozygous for HL-A2.1 were stimulated with peptide-pulsed T2 cells. […] Briefly, T2 cells (which co-express the costimulatory molecule B7.1) were washed 3 times in serum-free RPMI culture media supplemented with penicillin/streptomycin and glutamine (CM) and incubated with peptide at 20 μg/mL for 2 hr in CM. The peptide loaded T2 cells were then irradiated with 7500 cGy, washed once, and suspended with freshly isolated PBMC at a 1:1 ratio in CM supplemented with 10% human serum (HS) (Sigma, St. Louis, Mo.). After 7 days in culture, a second stimulation was performed and the following day, 60 IU/mL of recombinant human interleukin-2 (rhIL2) (Biosource International, Camarillo, Calif.) was added. After 14 days in culture a third stimulation was performed, followed on day 15 by addition of rhIL-2. A fourth stimulation was performed on day 21 followed on day 22 by the addition of rhIL2. After a total of 27 days in culture, the peptide-stimulated T cells were harvested and tested for peptide-specific cytotoxicity toward Calcein AM-labeled T2 cells, leukemia cell lines, and fresh human leukemia cells.
The five MPO peptides discussed above, were used to stimulate T cells specific for peptide-coated targets. […]

[1] = Cytotoxicity of peptide-elicited CTL lines against fresh myeloid leukemia marrow and normal marrow; format: cell-based, human
Description: (§1) PR1 specific CTL preferentially lyse human myeloid leukemia cells. It was next determined whether the PR1-specific CTL line was capable of lysing allogeneic human myeloid leukemia cells from HLA-A2.1 positive individuals. As controls, two cell lines expressing low levels of Pr3 were used: HLA-A2.1 transfected K562 cells and U937 cell line which lack HLA-A2.1 and would therefore be incapable of presenting peptides in an HLA-A2.1-restricted manner. Cryopreserved bone marrow cells from patients P1-P4, and marrow cells from a healthy normal volunteer (D2, a bone marrow donor for an allogeneic bone marrow transplant performed on patient P3) were thawed and used as targets for the PR1-specific CTL line.
(§2) It was next determined whether the MY2 and MY4-specific CTL lines were capable of lysing allogeneic human myeloid leukemia cells from HLA-A2.1 positive individuals. The targets were BM cells from pre-transplant HLA-A2.1-positive AML patients. As controls, BM cells from HLA-A2.1-negative AML patients, BM from HLA-A2.1-positive healthy donors and two cell lines expressing low levels of MPO were used: HLA-A2.1 transfected K562 cells and the U937 cell line which lacks HLA-A2.1 and would therefore be incapable of presenting peptides in an HLA-A2.1-restricted manner.

[2] = test system: human myeloid leukemia cells; assay: as above; format: cell-based
Description: as §1, §2

[3] = test system: AML colony-forming units (CFU-GM); assay: Colony inhibition assay with MY4 peptide-pulsed CTL; format: cell-based, human
Description: In contrast there was no inhibition of CFUGM from normal marrow, D1 and D2, the corresponding HLA identical marrow donors for P1 and P2.

[4] = test system: PR1-CTL from a healthy donor; assay: Annexin V apoptosis of PR1-CTL challenged with peptide-pulsed T2 cells; format: cell-based, human; details: for apoptosis of high avidity PR1-CTL: T2 cells pulsed with 20 μM peptide, Annexin V 16 to 18 hr
Description: High PR1 concentration and proteinase 3-overexpressing CML cells induce apoptosis of high avidity PR1-specific CTL. […] All high avidity PR1-CTL exposed to high dose PR1 were dead after 36 to 48 hr of co-culture.

peptide-pulsed T2 cells = assay: Elicitation of cyclin E peptide-specific CTL with peptide-pulsed T2 cells; format: cell-based, human; details: PBMCs from 7 HLA-A2 positive normal donors
Description: (§3) Nonameric peptides derived from cyclin E1 and cyclin E2 and predicted to bind to the HLA-A2 allele have similar amino acid sequences, differing only at position 7. Thus, the binding of CCNE1144-152 (cyclin E1 derived) and CCNE2144-152 (cyclin E2 derived) was compared to that of PR1 by a peptide-binding assay. The ability of CCNE1144-152 and CCNE2144-152 to stabilize HLA-A2 on the surface of T2 cells was almost the same as that of PR1 (FI CCNE1144-152/FI PR1=1.008, FI CCNE2144-152/FI PR1=1.189). […] In 3 of 7 donors, CCNE1144-152-stimulated CTL lines killed both CCNE1144-152 and CCNE 2144-152-pulsed T2 cells but not non-peptide-pulsed T2 cells and irrelevant peptide-pulsed T2 cells. In 4 of 7 same donors, CCNE2144-152-stimulated CTL lines killed both CCNE2144-152 and CCNE1144-152-pulsed T2 cells but not non-peptide-pulsed T2 cells and irrelevant peptide-pulsed T2 cells.

HLA-A2 = molecular target: T1, HLA-A2 (Homo sapiens, UniProt P04439, D140Y/D185E/D98H/E176V/E277Q/G131W/G231S/I119V/I121R/I166T/I218V/L300P/L318F/N151K/N90K/P208A/P217A/Q86G/Q94H/R138H/R169H/T345S); assay: Peptide-binding assay: stabilization of HLA-A2 on the surface of T2 cells, compared to PR1
T1 construct: measure HLA-A2.1 surface expression on the A2+ T2 cell line coated with the peptide; host or cells: T2 cells
Description: as §3

NE-HMy.CIR-A2 = assay: Proliferation (BrDU incorporation) of PR1-specific CTL lines with NE-transfected B cells; format: cell-based, human; details: CTL lines from two healthy donors
Description: (§4) The leukemia-associated antigen PR1 is derived from both proteinase 3 and neutrophil elastase proteins. The inventors have shown that killing of leukemia cells by PR1-specific CTL correlates with P3 overexpression. However, the PR1 sequence is also contained within neutrophil elastase (NE), which is also aberrantly expressed in leukemia cells. To determine whether PR1 is processed and presented from either protein, P3- and NE-transfected B cells were used as target cells in a proliferation assay with PR1-specific T cells. Full-length P3 and NE cDNA was cloned from the promyelocytic HL-60 cell line based on published sequences. The sequences were subcloned into an EGFP-containing vector (pCMS-EGFP) with a CMV promoter to drive constitutive expression. The B cell line, HMy-CIR, previously stably transfected with the HLA-A*0201 gene, was transfected with P3-pCMS-EGFP and NE-pCMS-EGFP by electroporation for 24 hr. GFP-expressing cells (P3-HMy.CIR-A2 and NE-HMy.CIR-A2, respectively) were selected by FACSorting and high transfection levels were confirmed by fluorescence microscopy. […] By contrast, NE transcript numbers from a transfected clone were 7-fold less than in HL-60 cells. Western blotting confirmed protein expression in the NE-HMy.CIR-A2-transfected cells, although expression was similarly less than in HL-60 cells. […]

[5] = test system: patients with myeloid leukemia; assay: Phase I/II PR1 peptide vaccine study; format: in vivo, human
Method: PR1 peptide is injected subcutaneously in incomplete Freund's adjuvant every 3 weeks for 3 injections to induce a PR1 specific host response against the myeloid leukemia. […] Vaccination at 3 dose levels of peptide with a fixed amount of IFA will be conducted, and stopping criteria will be guided by established toxicity criteria.
HLA-A2^+ patients with CML (interferon-resistant or relapsed after BMT), AML (smoldering relapse or ≧2nd CR) or MDS (RAEB or RAEBt) with no detectable antibodies to proteinase 3 (no detectable cANCA) were eligible. Patients that relapsed after BMT or those ineligible for BMT were also eligible for study. Pregnant patients, HIV+ patients, and those with known vasculitis were excluded. Patients were required to have immunosuppression (i.e. cyclosporine, steroids) discontinued 4 weeks prior to study entry.
Secondarily, clinical responses were assessed by standard criteria with bone marrow biopsy, cytogenetic studies (standard chromosome banding) and molecular studies (PCR for bcr-abl or other known abnormalities such as t(15;17), inv16, etc.) 3 weeks after the last vaccination. Patients were seen and evaluated in clinic every 3 weeks during the study period. Both vialed PR1 peptide (NSC698102) and the adjuvant (Montanide ISA-51, NSC675756) were used in this study. […]

[6] = test system: human myeloid leukemia cells; assay: Cytotoxicity of peptide-elicited CTL lines against fresh myeloid leukemia marrow and normal marrow; format: cell-based; remark: listed apart in the source
[7] = test system: P3-HMy.CIR-A2 target cells; assay: Proliferation (BrDU incorporation) of PR1-specific CTL lines with P3-transfected B cells; format: cell-based, human; details: CTL lines from two healthy donors
Description: as §4

[8] = test system: HMy2.CIR-A2 cells transfected with Pr3; assay: Lysis of Pr3-transfected B cells by PR1 specific CTL; format: cell-based, human; details: E:T 25:1
Method: Expression of proteinase 3 following transfection into and HMy2.CIR and HMy2.CIR-A2 cells. […] The parental HMy2.CIR cell line, which has lost expression of HLA-A and -B, and the HLA-A2.1-transfected HMy2.CIR cells (named HMy2.CIR-A2), were both transfected with Pr3 as described below.
Ten million HMy2.CIR (ATCC, Rockville, Md.), or 10 million HMy2.CIR-A2 cells were each washed in phosphate buffered saline (PBS) and re-suspended in 0.8 mL of ice-cold PBS and put into an electroporation cuvette with 20 μg of circular plasmid DNA. The mixture was exposed to an electric pulse of 320 volts at 960 microF and incubated on ice for 10 min. Cells were then added to 10 mL of pre-warmed CM. The following day, the CM was replaced. On day 2, cells were grown under selection conditions using 200 μg/mL Zeocin. Following one week of selection, the cells were subcloned by limiting dilution under Zeocin selection, and 6 clones were isolated.
HMy.2.CIR-A2 cells transfected with Pr3 are susceptible to lysis by PR1 specific CTL. It was next determined whether the transfected HMy2.CIR-A2 cells could be lysed by PR1 specific CTL. The PR1 specific CTL were elicited in the manner previously described, and after 22 days in culture were combined at a 25:1 E:T ratio with HMy2.CIR-A2 transfected either with the Pr3-containing vector pRTZ.2, or the empty vector containing the reporter gene, CAT. […]

[9] = test system: HLA-A2 transfected K562 leukemic cell line; assay: Killing of leukemic cell line by CCNE1 peptide-stimulated CTL lines; format: cell-based, human
Description: Thus, each peptide-specific CTLs can recognize both peptides with HLA-A2, but the immunogenicity of each peptide is different between individuals. Moreover, one of 4 CCNE1144-152-stimulated CTL lines which killed CCNE1144-152-pulsed T2 cell killed HLA-A2 transfected K562 leukemic cell line which is over-expressing cyclin E1 protein, but not non-transfected K562 leukemic cell line. Thus, CCNE1144-152-specific CTL can distinguish leukemic cell lines from normal PBMCs. From the data, it was concluded that cyclin E1/E2 derived peptides are potential tumor-antigens, because 1) cyclin E1/E2 are highly over-expressed in hematological malignancy, 2) cyclin E1/E2 peptides can sufficiently bind to HLA-A2 to stimulate CTL and 3) CCLE1144-152 specific CTL preferentially kills leukemic cell lines HLA-A2 restrictively.

Substance: RLFPDFFTRV [PR2]
- surface HLA-A2.1 expression on peptide-pulsed T2 cells (HLA-A2.1): increased surface HLA-A2.1 expression
- Median Channel of Fluorescence of HLA-A2 Expression on T2 (HLA-A2.1): 273
- peptide-specific lysis by CTL line generated against the peptide (T2 cells): did not demonstrate any significant cytotoxicity

Substance: RLFEQVMRI [MY4]
- specific lysis of HLA-A2+ normal BMC by peptide-specific CTL [1]: no lysis of normal BMC
- lysis of HLA-A2.1-positive AML marrow cells by peptide-specific CTL [2]: killed AML cells, but not normal cells
- inhibition of CFU-GM by MY4 peptide-pulsed CTL ([3]; normal marrow, D1 and D2 (HLA identical donors)): no inhibition
- inhibition of CFU-GM by MY4 peptide-pulsed CTL (CTL1) ([3]; patient P1 (M2-AML)): 63%
- inhibition of CFU-GM by MY4 peptide-pulsed CTL (CTL1) ([3]; patient P2 (M4-AML)): 34%
- peptide-specific lysis by CTL line generated against the peptide (T2 cells): tested similarly

Substance: Influenza nucleoprotein: control influenza peptide, Influenza B nucleoprotein (aa 85-94), known high binding affinity to HLA-A2.1 (KLGEFYNQMM) [reference compound]
- apoptosis of high avidity PR1-CTL [4]: no apoptosis was observed
- Median Channel of Fluorescence of HLA-A2 Expression on T2 (HLA-A2.1): 194

Substance: CCNE2144-152: nonameric peptide derived from cyclin E2, predicted to bind to the HLA-A2 allele (ILLDWLLEV)
- donors in whom peptide-stimulated CTL lines killed peptide-pulsed T2 cells (peptide-pulsed T2 cells): 4 of 7
- FI peptide/FI PR1 (HLA-A2 stabilization on T2 cells) (HLA-A2): 1.189

Substance: KLNDILLIQL [PR71]
- surface HLA-A2.1 expression on peptide-pulsed T2 cells (HLA-A2.1): strong peptide binding

Substance: VLQELNVTV [PR1, HLA-A2.1-restricted nonamer (aa 169-177) derived from proteinase 3]
- stimulation indices (SI) of PR1-specific CTL lines (NE-HMy.CIR-A2): 1.5 and 2.1
- apoptosis of high avidity PR1-CTL [4]: underwent apoptosis
- apoptosis of low avidity PR1-CTL ([4]; high or low concentrations of PR1): did not undergo apoptosis
- lysis by PR1-specific CTL line ([1]; marrow cells from normal healthy donor (D2)): < 20%
- specific lysis by CTL specific for PR-1 ([2]; marrow cells from a patient with CML in blast crisis, E:T 25:1): 73%
- specific lysis by PR1-specific CTL line ([2]; marrow cells of P1 (CML in chronic phase), E:T 6:1): 53%
- PR1-specific CTL immunity elicited (by tetramer staining) ([5]; 0.25, 0.5 or 1.0 mg s.c. every 3 weeks for 3 injections): 6 of 9
- complete remissions ([5]; 9 patients (1 AML and 1 CML patient)): 2 patients
- lysis of CML #3 BM cells by CTL elicited with 0.2 μM PR1 ([6]; CTL from patient CML #1, E:T 20:1): 24%±5%
- lysis of CML #3 BM cells by CTL elicited with 0.2 μM PR1 ([6]; CTL from patient CML #2, E:T 20:1): 33%±6%
- fold greater lysis of CML BM cells, CTL elicited with 0.2 μM vs 20 μM PR1 ([6]; per cell basis, 4-hr cytotoxicity assay): ~2 fold
- surface HLA-A2.1 expression on peptide-pulsed T2 cells (HLA-A2.1): increased surface HLA-A2.1 expression
- Median Channel of Fluorescence of HLA-A2 Expression on T2 (HLA-A2.1): 294
- stimulation indices (SI) of PR1-specific CTL lines [7]: 1.3 and 2.4
- peptide-specific lysis by CTL line generated against the peptide (T2 cells): high specific lysis
- specific lysis by PR1 specific CTL ([8]; Pr3-transfected cells (clone 1.4)): 36%
- lysis of negative control targets by PR1 specific CTL ([8]; normal marrow cells, HL-60, HMy2.CIR with empty vector (CAT), non-transfected parent line): only background lysis

Substance: KLLLALAGL [MY2]
- specific lysis of HLA-A2+ normal BMC by peptide-specific CTL [1]: 45%
- lysis by MY2-specific CTL lines ([1]; marrow cells from HLA-A2.1-positive normal healthy donor, E:T 20:1): 43%
- lysis of HLA-A2.1-positive AML marrow cells by peptide-specific CTL [2]: readily lysed
- peptide-specific lysis by CTL line generated against the peptide (T2 cells): high specific lysis

Substance: KLNDVLLIQL [PR7V]
- surface HLA-A2.1 expression on peptide-pulsed T2 cells (HLA-A2.1): strong peptide binding

Substance: CCNE1144-152: nonameric peptide derived from cyclin E1, predicted to bind to the HLA-A2 allele
- CTL lines that killed HLA-A2 transfected K562 but not non-transfected K562 [9]: one of 4
- donors in whom peptide-stimulated CTL lines killed peptide-pulsed T2 cells (peptide-pulsed T2 cells): 3 of 7
- FI peptide/FI PR1 (HLA-A2 stabilization on T2 cells) (HLA-A2): 1.008
